Experimental data reported in patent US20250090540A1, “PI3K-ALPHA INHIBITORS AND METHODS OF USE THEREOF” (Relay Therapeutics, Inc., priority 2021, published 2025).

The compounds below were run against H1047R PIK3CA enzyme (Homo sapiens, UniProt P42336, H1047R) (assay: ADP-Glo Biochemical PIK3CA Kinase Assay). Details: not given.
Sequence of H1047R PIK3CA enzyme (P42336 whole entry H1047R): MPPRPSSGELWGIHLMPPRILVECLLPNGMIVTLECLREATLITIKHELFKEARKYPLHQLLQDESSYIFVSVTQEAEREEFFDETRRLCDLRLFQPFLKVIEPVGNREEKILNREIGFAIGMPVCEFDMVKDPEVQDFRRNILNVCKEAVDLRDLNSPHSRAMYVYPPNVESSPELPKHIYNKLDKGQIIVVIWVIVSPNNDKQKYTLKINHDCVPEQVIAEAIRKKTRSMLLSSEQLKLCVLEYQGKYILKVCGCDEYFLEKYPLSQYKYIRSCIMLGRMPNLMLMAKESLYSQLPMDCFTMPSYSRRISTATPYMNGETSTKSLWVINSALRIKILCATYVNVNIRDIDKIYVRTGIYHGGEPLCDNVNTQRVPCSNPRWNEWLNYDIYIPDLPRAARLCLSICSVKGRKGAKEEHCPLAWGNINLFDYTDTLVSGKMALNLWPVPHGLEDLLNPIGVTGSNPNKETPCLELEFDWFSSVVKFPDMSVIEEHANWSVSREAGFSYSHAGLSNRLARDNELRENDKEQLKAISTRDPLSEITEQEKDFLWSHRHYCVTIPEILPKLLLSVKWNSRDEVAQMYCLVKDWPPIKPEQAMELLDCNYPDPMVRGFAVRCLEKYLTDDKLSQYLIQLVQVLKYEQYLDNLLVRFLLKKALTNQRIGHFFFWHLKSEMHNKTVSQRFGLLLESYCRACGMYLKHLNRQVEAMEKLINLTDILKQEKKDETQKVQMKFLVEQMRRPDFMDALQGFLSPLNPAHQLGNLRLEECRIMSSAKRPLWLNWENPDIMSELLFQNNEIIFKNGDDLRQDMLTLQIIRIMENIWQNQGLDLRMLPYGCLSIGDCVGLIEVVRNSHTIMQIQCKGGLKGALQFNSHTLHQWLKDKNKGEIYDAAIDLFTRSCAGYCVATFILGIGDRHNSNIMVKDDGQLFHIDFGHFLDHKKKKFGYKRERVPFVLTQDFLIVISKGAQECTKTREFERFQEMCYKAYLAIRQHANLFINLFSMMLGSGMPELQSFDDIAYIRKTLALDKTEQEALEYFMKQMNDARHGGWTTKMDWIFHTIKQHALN
Sequence of H1047R PIK3CA enzyme (P27986 whole entry partner): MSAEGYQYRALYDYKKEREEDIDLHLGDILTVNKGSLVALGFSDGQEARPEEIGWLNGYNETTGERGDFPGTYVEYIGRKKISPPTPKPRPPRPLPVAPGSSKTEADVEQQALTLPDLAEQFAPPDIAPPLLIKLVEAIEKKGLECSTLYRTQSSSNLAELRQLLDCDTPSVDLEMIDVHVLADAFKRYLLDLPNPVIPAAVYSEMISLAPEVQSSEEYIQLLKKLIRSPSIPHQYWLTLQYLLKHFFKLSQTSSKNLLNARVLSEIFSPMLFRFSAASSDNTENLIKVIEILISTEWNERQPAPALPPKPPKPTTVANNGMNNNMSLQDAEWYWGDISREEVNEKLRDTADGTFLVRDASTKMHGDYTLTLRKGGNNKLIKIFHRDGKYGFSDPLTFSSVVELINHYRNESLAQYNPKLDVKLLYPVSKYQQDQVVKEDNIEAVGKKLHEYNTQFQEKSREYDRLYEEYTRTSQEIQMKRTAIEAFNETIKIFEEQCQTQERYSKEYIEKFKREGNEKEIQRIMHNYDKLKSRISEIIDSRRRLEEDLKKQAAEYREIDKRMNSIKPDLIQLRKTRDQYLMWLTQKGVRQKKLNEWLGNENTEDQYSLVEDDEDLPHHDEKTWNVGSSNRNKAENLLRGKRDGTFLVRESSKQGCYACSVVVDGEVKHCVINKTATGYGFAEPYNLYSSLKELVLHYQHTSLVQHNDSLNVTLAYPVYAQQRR

Row | Compound | IC50 [µM]
1 | Cn1cc(NC(=O)c2csc3ccccc23)c(N2CCOc3ccccc32)cc1=O [I-272] | 1 to 10
2 | Cn1cc(NC(=O)c2cc(F)cc(C(F)(F)F)c2)c(N2CCOc3ccccc32)cc1=O [I-273] | 1 to 10
3 | O=C(NC1CS(=O)(=O)C1)c1cnc(N2CCCOc3ccccc32)c(NC(=O)c2csc3ccccc23)c1 [I-277] | 10 to 100
4 | Cc1ccccc1Nc1cc(=O)n(C)cc1NC(=O)c1csc2ccccc12 [I-280] | 1 to 10
5 | CNC(=O)c1cnc(N2CCNCc3ccccc32)c(NC(=O)c2cc(F)cc(C(F)(F)F)c2)c1 [I-281] | 10 to 100
6 | CNC(=O)c1cnc(N2CCC(C)c3ccccc32)c(NC(=O)c2cc(F)cc(C(F)(F)F)c2)c1 (stereo not shown) [I-282] | 1 to 10
7 | CNC(=O)c1cnc(Nc2ccccc2C)c(NC(=O)c2csc3ncccc23)c1 [I-283] | 10 to 100
8 | CCn1cccc(C(=O)Nc2cc(C(=O)NC)cnc2Nc2ccccc2C)c1=O [I-284] | 10 to 100
9 | CNC(=O)c1cnc(Nc2ccccc2C)c(NC(=O)Cc2ccccc2S(C)(=O)=O)c1 [I-306] | 10 to 100
10 | CNC(=O)c1cnc(Nc2ccccc2C)c(NC(=O)c2cc(F)cc(-c3ccccc3)c2)c1 [I-318] | 10 to 100
11 | CNC(=O)c1cnc(Nc2ccccc2C)c(NC(=O)c2cc(F)cc3cccnc23)c1 [I-319] | 10 to 100
12 | CNC(=O)c1cnc(Nc2ccccc2C)c(NC(=O)c2cc(F)cc3ccccc23)c1 [I-320] | 10 to 100
13 | O=C(Nc1cccc(=O)n1Cc1ccccc1)c1csc2ccccc12 [I-321] | 10 to 100
14 | CNC(=O)c1cnc(Nc2ccccc2C)c(NC(=O)c2cc(F)c3ccccc3c2)c1 [I-322] | 10 to 100
15 | CNC(=O)c1cnc(NCc2cncn2C)c(NC(=O)c2cc(F)cc(C(F)(F)F)c2)c1 [I-323] | 10 to 100
16 | Cc1ccccc1NC(=O)c1cc(NC(=O)c2cc(F)cc(C(F)(F)F)c2)c(Nc2ccccc2C)cn1 [I-324] | 10 to 100
17 | CNC(=O)c1cc(NC(=O)c2cc(F)cc(C(F)(F)F)c2)c(N(C)c2ccccc2C)cn1 [I-325] | 1 to 10
18 | CNC(=O)c1cnc(Nc2ccccc2C)c(Nc2cc(F)c3cn[nH]c3c2)c1 [I-327] | 10 to 100
19 | CNC(=O)c1cnc(Nc2ccccc2C)c(NC(=O)c2c(C)sc3ccccc23)c1 [I-328] | 10 to 100
20 | CNC(=O)c1cnc(Nc2ccccc2C)c(NC(=O)C2(c3ccccn3)CC2)c1 [I-333] | 10 to 100
21 | CNC(=O)c1cnc(Nc2ccccc2C)c(NC(=O)C2(c3cccnc3)CC2)c1 [I-334] | 10 to 100
22 | O=C(Nc1cc(C(=O)NC2CC(F)(F)C2)cnc1N1C(=O)NCc2ccccc21)c1cc(F)cc(C(F)(F)F)c1 [I-338] | 1 to 10

Row | Compound | IC50 [µM]
23 | CNC(=O)c1cnc(Nc2ccccc2C)c(NC(=O)c2csc3c2CCCC3)c1 [I-340] | 1 to 10
24 | CNC(=O)c1cnc(Nc2ccccc2C)c(NC(=O)c2csc3c2CCC3)c1 [I-341] | 1 to 10
25 | CNC(=O)c1cnc(Nc2ccccc2C)c(NC(=O)C2(c3ccccc3)CC2(F)F)c1 (stereo not shown) [I-342] | 10 to 100
26 | Cc1ccccc1Nc1ccncc1NC(=O)c1csc2ccccc12 [I-344] | 1 to 10
27 | CNC(=O)c1cnc(Nc2cccc(OC)n2)c(NC(=O)c2csc3ccccc23)c1 [I-346] | 1 to 10
28 | Cc1ccccc1Nc1ncc(C(O)CO)cc1NC(=O)c1cc(F)cc(C(F)(F)F)c1 (stereo not shown) [I-351] | 1 to 10
29 | CNC(=O)c1cnc(Nc2ccccc2C)c(NC(=O)c2csc3cc(C)ccc23)c1 [I-354] | 1 to 10
30 | CNC(=O)c1cnc(Nc2ccccc2C)c(NC(=O)c2csc3cc(OC)ccc23)c1 [I-355] | 10 to 100
31 | Cc1ccccc1Nc1ncc(C(=O)NC2CS(=O)(=O)C2)cc1NC(=O)c1cncc2ccccc12 [I-356] | 10 to 100
32 | Cc1ccccc1Nc1ncc(C(=O)NC2CS(=O)(=O)C2)cc1NC(=O)c1cc2ccccc2o1 [I-357] | 10 to 100
33 | CNC(=O)c1cnc(NCCOC)c(NC(=O)c2cc(F)cc(C(F)(F)F)c2)c1 [I-358] | 10 to 100
34 | CNC(=O)c1cnc(NC2CCCCC2)c(NC(=O)c2cc(F)cc(C(F)(F)F)c2)c1 [I-359] | 10 to 100
35 | CNC(=O)c1cnc(NC2CCCC2)c(NC(=O)c2cc(F)cc(C(F)(F)F)c2)c1 [I-360] | 10 to 100
36 | Cc1ccccc1Nc1cc(=O)n(CC(=O)NCC2CC(F)(F)C2)cc1NC(=O)c1csc2ccccc12 [I-363] | 1 to 10
37 | CNC(=O)c1cnc(Nc2ccccc2C)c(NC(=O)c2cc(F)cc(OC(F)F)c2)c1 [I-364] | 1 to 10
38 | CNC(=O)c1cnc(Nc2ccccc2C)c(NC(=O)c2cnccc2C(F)(F)F)c1 [I-365] | 10 to 100
39 | CNC(=O)c1cnc(Nc2ccccc2C)c(NC(=O)c2ccnc(C(F)(F)F)c2)c1 [I-366] | 10 to 100
40 | CNC(=O)c1cnc(Nc2ccccc2C)c(NC(=O)c2nc3ccccc3n(C)c2=O)c1 [I-368] | 10 to 100
41 | CNC(=O)c1cnc(Nc2ccccc2C)c(NC(=O)c2cc(C)n(C(F)F)n2)c1 [I-369] | 10 to 100
42 | CNC(=O)c1cnc(Nc2ccccc2C)c(NC(=O)c2c[nH]c3cccc(OC)c23)c1 [I-370] | 10 to 100
43 | CNC(=O)c1cnc(Nc2ccccc2C)c(NC(=O)c2cccnc2C(F)(F)F)c1 [I-371] | 10 to 100
44 | CNC(=O)c1cnc(Nc2ccccc2C)c(NC(=O)c2nccnc2C(F)(F)F)c1 [I-372] | 10 to 100

Row | Compound | IC50 [µM]
45 | CNC(=O)c1cnc(Nc2ccccc2C)c(NC(=O)Cc2cc(C)cc(F)c2)c1 [I-373] | 10 to 100
46 | CNC(=O)c1cnc(Nc2ccccc2C)c(NC(=O)c2cn3ccccc3n2)c1 [I-374] | 10 to 100
47 | CCn1nc(C(=O)Nc2cc(C(=O)NC)cnc2Nc2ccccc2C)c2ccccc21 [I-375] | 10 to 100
48 | CNC(=O)c1cnc(Nc2ccccc2C)c(NC(=O)c2cccc(C(F)(F)F)n2)c1 [I-376] | 10 to 100
49 | CNC(=O)c1cnc(Nc2ccccc2C)c(NC(=O)c2cn3c(Cl)cccc3n2)c1 [I-377] | 10 to 100
50 | CNC(=O)c1cnc(Nc2ccccc2C)c(NC(=O)c2ccc(F)c(F)c2OC)c1 [I-378] | 10 to 100
51 | CNC(=O)c1cnc(Nc2ccccc2C)c(NC(=O)c2cccc(C#N)n2)c1 [I-379] | 10 to 100
52 | CNC(=O)c1cnc(Nc2ccccc2C)c(NC(=O)c2cn3c(C(F)(F)F)cccc3n2)c1 [I-380] | 10 to 100
53 | CNC(=O)c1cnc(Nc2ccccc2C)c(NC(=O)CC2COc3ccccc3O2)c1 (stereo not shown) [I-381] | 10 to 100
54 | CNC(=O)c1cnc(Nc2ccccc2C)c(NC(=O)c2ccc(Cl)c(C#N)c2)c1 [I-382] | 10 to 100
55 | CNC(=O)c1cnc(Nc2ccccc2C)c(NC(=O)c2n[nH]c3c(F)cccc23)c1 [I-383] | 10 to 100
56 | CNC(=O)c1cnc(Nc2ccccc2C)c(NC(=O)CCc2cnccc2C(F)(F)F)c1 [I-384] | 10 to 100
57 | CNC(=O)c1cnc(Nc2ccccc2C)c(NC(=O)c2cnn(C)c2C(F)(F)F)c1 [I-385] | 10 to 100
58 | CNC(=O)c1cnc(Nc2ccccc2C)c(NC(=O)C2CCNc3ccccc32)c1 (stereo not shown) [I-386] | 10 to 100
59 | CNC(=O)c1cnc(Nc2ccccc2C)c(NC(=O)CC2OCCc3ccccc32)c1 (stereo not shown) [I-387] | 10 to 100
60 | CNC(=O)c1cnc(Nc2ccccc2C)c(NC(=O)c2cncc(C(F)(F)F)c2)c1 [I-388] | 10 to 100
61 | CNC(=O)c1cnc(Nc2ccccc2C)c(NC(=O)c2cc(F)cc(S(N)(=O)=O)c2)c1 [I-389] | 10 to 100
62 | CNC(=O)c1cnc(Nc2ccccc2C)c(NC(=O)c2ccc(OC(F)(F)F)c(F)c2)c1 [I-391] | 10 to 100
63 | CNC(=O)c1cnc(Nc2ccccc2C)c(NC(=O)c2cc(F)cc3[nH]ccc23)c1 [I-392] | 10 to 100
64 | CNC(=O)c1cnc(Nc2ccccc2C)c(NC(=O)c2cc(F)c3[nH]ncc3c2)c1 [I-393] | 10 to 100
65 | CNC(=O)c1cnc(Nc2ccccc2C)c(NC(=O)c2cc(F)c3cc[nH]c3c2)c1 [I-394] | 10 to 100

Same assay, conditions: ADP-Glo biochemical PIK3CA kinase assay

Row | Compound | IC50 [µM]
66 | CNC(=O)c1cnc(Nc2cccnc2OC)c(NC(=O)c2csc3ccccc23)c1 [I-400] | 10 to 100
67 | CNC(=O)c1cnc(Nc2cccc(OC)c2)c(NC(=O)c2csc3ccccc23)c1 [I-401] | 1 to 10
68 | CNC(=O)c1cnc(Nc2ccccc2C)c(NC(=O)c2csc3c2CCC(C)(C)C3)c1 [I-403] | 10 to 100
69 | CNC(=O)c1cnc(Nc2ccccc2C)c(NC(=O)c2csc3cc(F)cc(F)c23)c1 [I-404] | 10 to 100
70 | CNC(=O)c1cnc(Nc2ccccc2C)c(NC(=O)Cc2csc3ccccc23)c1 [I-410] | 10 to 100
71 | CNC(=O)c1cnc(Nc2ccccc2C)c(NC(=O)c2cnc3c(Cl)cccn23)c1 [I-414] | 10 to 100
72 | CNC(=O)c1cnc(Nc2ccccc2C)c(NC(=O)c2nc3ccccn3c2F)c1 [I-415] | 10 to 100
73 | CNC(=O)c1cnc(Nc2ccccc2C)c(NC(=O)c2cnc(O)cc2C(F)(F)F)c1 [I-416] | 10 to 100
74 | CNC(=O)c1cnc(Nc2ccccc2C)c(NC(=O)c2cn(C)nc2C(F)F)c1 [I-417] | 10 to 100
75 | CNC(=O)c1cnc(Nc2ccccc2C)c(NC(=O)c2cc(C)c3ccccc3n2)c1 [I-418] | 10 to 100
76 | CNC(=O)c1cnc(Nc2ccccc2C)c(NC(=O)c2cc(C)cc3cccnc23)c1 [I-419] | 1 to 10
77 | CNC(=O)c1cnc(Nc2ccccc2C)c(NC(=O)c2cnn3cc(F)ccc23)c1 [I-420] | 10 to 100
78 | CNC(=O)c1cnc(Nc2ccccc2C)c(NC(=O)c2cccc3cc(C)[nH]c23)c1 [I-421] | 1 to 10
79 | CNC(=O)c1cnc(Nc2ccccc2C)c(NC(=O)c2cn3c(F)cccc3n2)c1 [I-422] | 10 to 100
80 | CNC(=O)c1cnc(Nc2ccccc2C)c(NC(=O)c2cc(C)cc3cc[nH]c23)c1 [I-423] | 1 to 10
81 | CNC(=O)c1cnc(Nc2ccccc2C)c(NC(=O)c2cc3cc(F)ccc3[nH]2)c1 [I-425] | 10 to 100
82 | CNC(=O)c1cnc(Nc2ccccc2C)c(NC(=O)c2n[nH]c3cccc(F)c23)c1 [I-426] | 1 to 10
83 | CNC(=O)c1cnc(Nc2ccccc2C)c(NC(=O)c2nc3ccccn3c2C)c1 [I-427] | 10 to 100
84 | CNC(=O)c1cnc(Nc2ccccc2C)c(NC(=O)C(C)n2ccccc2=O)c1 (stereo not shown) [I-428] | 10 to 100
85 | CNC(=O)c1cnc(Nc2ccccc2C)c(NC(=O)c2cc3cc[nH]c3cc2F)c1 [I-429] | 10 to 100
86 | CNC(=O)c1cnc(Nc2ccccc2C)c(NC(=O)c2cnn3cccc(OC)c23)c1 [I-430] | 10 to 100
87 | CNC(=O)c1cnc(Nc2ccccc2C)c(NC(=O)c2ccc3c(cnn3C)c2)c1 [I-431] | 10 to 100
88 | CNC(=O)c1cnc(Nc2ccccc2C)c(NC(=O)c2cc(C(F)(F)F)ccn2)c1 [I-432] | 10 to 100
